# Legend:
# tau protein = target: T1, tau protein (Homo sapiens, UniProt P10636); assay: Tau protein aggregation inhibition in tau-BiFC cell model; format: cell-based; settings: tau-BiFC cells treated together with Forskolin, 48 hours
# T1 construct: expressed in transfected cells
# Description: (§1) In order to select new tau protein aggregation-inhibiting materials, tau-BiFC cell models, in which it is easy to observe the formation of tau oligomers in living cells, were used. […] After 48 hours, intracellular nuclei were stained using Hoechst (treatment concentration 2 μg/mL), and BiFC fluorescence intensity was automatically quantified using Operetta (PerkinElmer) to count stained nuclei in each well from the total well plates. […] Further, the degree of cytotoxicity induced by the newly synthesized compound is also based on the 100% survival rate of the group treated with Forskolin alone, and the cytotoxicity value of the compound was calculated by the equation “number of stained nuclei in the group treated with the compound/number of stained nuclei in the group treated with Forskolin x 100”.
# (§2) In order to evaluate dose-dependent tau protein aggregation inhibition effects of the compounds selected according to Experimental Example 1, the selected compounds were treated in tau-BiFC cells at concentrations of 0.03 µM, […], 0.3 μM, 1 μM, 3 μM, 10 μM, and 30 μM, respectively, together with Forskolin (treatment concentration 30 µM) as a tau protein aggregation inducing material. After 48 hours, tau protein aggregation reaction and cytotoxicity degree were analyzed by observing cell images. The IC50 and toxicity of the compounds were analyzed by nonlinear regression analysis of prism software (Graph Pad).
# CYP3A4 = target: T2, CYP3A4 (Homo sapiens, UniProt P08684); assay: Inhibition of CYP coenzyme activity in human liver microsomes; format: in vitro ADME; parameters: scale not given here; settings: compound 10 PM (so in the source); human liver microsomes 0.25 mg/mL; substrate midazolam; 15 minutes
# T2 construct: human liver microsomes (0.25 mg/mL); from tissue; host or cells: human liver microsomes
# T2 sequence (P08684 whole entry): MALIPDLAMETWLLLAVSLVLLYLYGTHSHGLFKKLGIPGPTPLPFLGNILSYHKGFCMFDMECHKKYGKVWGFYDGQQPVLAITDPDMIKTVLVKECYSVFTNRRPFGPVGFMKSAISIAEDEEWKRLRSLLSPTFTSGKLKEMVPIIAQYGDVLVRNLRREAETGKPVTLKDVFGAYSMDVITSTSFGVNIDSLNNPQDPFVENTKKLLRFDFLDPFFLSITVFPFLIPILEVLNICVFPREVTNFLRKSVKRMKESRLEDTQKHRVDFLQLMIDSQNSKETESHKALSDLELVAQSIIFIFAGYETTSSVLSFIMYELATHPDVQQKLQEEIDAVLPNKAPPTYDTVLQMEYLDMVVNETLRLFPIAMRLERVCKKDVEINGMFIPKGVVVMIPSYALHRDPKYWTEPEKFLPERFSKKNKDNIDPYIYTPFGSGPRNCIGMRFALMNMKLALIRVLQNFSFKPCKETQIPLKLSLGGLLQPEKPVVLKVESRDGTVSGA
# Description: (§3) 5 The inhibition effects of CYP coenzyme activity by the compounds prepared according to Examples 1 to 171 was confirmed. Specifically, human liver microsomes (0.25 mg/mL), a 0.1 M phosphate buffer solution (pH 7.4), substrate drug cocktails (phenacetin 50 μM, diclofenac 10 μM, S-mephenytoin 100 μM, dextromethorphan 5 μM, and midazolam 2.5 μM) of five kinds of drug metabolism enzymes, and the compounds with a concentration of 0 μM or 10 PM were added, respectively. Then the mixture was cultured in advance at 37° C. for 5 minutes, and then further cultured at 37° C. for 15 minutes together with the addition of an NADPH generation system solution. Thereafter, a reaction was terminated by adding an acetonitrile solution containing an internal standard material (terfenadine), centrifugal separation (14,000 rpm, 4° C.) was performed for 5 minutes, and then a supernatant was injected into an LC-MS/MS system. Metabolites of the substrate drugs were simultaneously analyzed to evaluate the drug metabolism inhibition ability.
# (§4) Metabolites of each CYP coenzyme indicator drug generated through the reaction were analyzed using the Shimadzu Nexera XR system and TSQ vantage (Thermo). Kinetex C18 (2.1 mm×100 mm, 2.6 μm, particle size; Phenomenex, USA) was used in an HPLC column, and (A) distilled water containing 0.1% formic acid and (B) acetonitrile containing 0.1% formic acid were used as mobile phases, and the gradient program shown in Table 2 was applied.
# (§5) The generated metabolites were quantified using an MRM (multiple reaction monitoring) quantification mode, and Xcalibur (version 1.6.1) was used for data analysis.
# CYP2C19 = target: T3, CYP2C19 (Homo sapiens, UniProt P33261); assay: as above; format: in vitro ADME; settings: compound 10 PM (so in the source); human liver microsomes 0.25 mg/mL; substrate S-mephenytoin; 15 minutes
# T3 construct: human liver microsomes (0.25 mg/mL); from tissue; host or cells: human liver microsomes
# T3 sequence (P33261 whole entry): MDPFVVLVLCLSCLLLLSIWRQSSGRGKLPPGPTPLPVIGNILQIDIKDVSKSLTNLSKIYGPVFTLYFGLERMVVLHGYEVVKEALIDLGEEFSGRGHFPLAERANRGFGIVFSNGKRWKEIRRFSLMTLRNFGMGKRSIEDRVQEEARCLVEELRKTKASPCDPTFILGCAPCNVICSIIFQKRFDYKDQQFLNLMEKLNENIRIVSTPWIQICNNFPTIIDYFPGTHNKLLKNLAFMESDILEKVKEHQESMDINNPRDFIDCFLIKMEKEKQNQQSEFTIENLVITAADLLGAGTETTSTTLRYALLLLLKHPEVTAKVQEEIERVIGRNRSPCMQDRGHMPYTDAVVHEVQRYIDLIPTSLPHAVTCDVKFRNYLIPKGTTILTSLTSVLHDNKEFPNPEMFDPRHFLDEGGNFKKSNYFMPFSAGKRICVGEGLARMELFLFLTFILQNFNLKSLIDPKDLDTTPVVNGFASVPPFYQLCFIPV
# Description: as §3, §4, §5
# CYP2D6 = target: T4, CYP2D6 (Homo sapiens, UniProt P10635); assay: as above; format: in vitro ADME; settings: compound 10 PM (so in the source); human liver microsomes 0.25 mg/mL; substrate dextromethorphan; 15 minutes
# T4 construct: human liver microsomes (0.25 mg/mL); from tissue; host or cells: human liver microsomes
# T4 sequence (P10635 whole entry): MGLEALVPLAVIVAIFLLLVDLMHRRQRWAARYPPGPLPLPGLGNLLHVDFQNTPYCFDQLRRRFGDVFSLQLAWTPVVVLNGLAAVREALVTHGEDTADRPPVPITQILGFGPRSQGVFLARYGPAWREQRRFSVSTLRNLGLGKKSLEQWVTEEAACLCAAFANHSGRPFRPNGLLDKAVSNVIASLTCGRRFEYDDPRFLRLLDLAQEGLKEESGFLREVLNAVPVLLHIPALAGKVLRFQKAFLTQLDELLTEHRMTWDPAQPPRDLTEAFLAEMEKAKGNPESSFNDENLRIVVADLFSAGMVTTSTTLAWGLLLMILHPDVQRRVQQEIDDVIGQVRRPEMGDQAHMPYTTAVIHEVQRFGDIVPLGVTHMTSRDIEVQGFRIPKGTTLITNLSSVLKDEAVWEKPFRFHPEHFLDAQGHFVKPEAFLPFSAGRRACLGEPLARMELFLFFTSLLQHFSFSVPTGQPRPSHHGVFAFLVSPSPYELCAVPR
# Description: as §3, §4, §5
# CYP1A2 = target: T5, CYP1A2 (Homo sapiens, UniProt P05177); assay: as above; format: in vitro ADME; settings: compound 10 PM (so in the source); human liver microsomes 0.25 mg/mL; substrate phenacetin; 15 minutes
# T5 construct: human liver microsomes (0.25 mg/mL); from tissue; host or cells: human liver microsomes
# T5 sequence (P05177 1-516): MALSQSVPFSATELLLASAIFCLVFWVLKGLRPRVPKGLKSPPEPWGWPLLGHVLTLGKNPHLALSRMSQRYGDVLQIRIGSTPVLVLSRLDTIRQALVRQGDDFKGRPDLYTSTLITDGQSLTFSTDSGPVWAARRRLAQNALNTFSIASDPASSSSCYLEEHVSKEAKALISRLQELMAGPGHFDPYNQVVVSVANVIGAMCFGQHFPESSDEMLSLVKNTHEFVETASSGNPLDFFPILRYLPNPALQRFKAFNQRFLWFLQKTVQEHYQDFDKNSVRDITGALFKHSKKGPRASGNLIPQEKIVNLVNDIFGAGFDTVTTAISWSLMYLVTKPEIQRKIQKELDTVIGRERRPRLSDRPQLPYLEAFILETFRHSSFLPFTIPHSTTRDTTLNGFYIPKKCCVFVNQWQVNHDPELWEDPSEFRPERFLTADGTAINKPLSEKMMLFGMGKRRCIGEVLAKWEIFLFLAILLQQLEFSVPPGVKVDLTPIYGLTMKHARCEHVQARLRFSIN
# Description: as §3, §4, §5
# CYP2C9 = target: T6, CYP2C9 (Homo sapiens, UniProt P11712); assay: as above; format: in vitro ADME; settings: compound 10 PM (so in the source); human liver microsomes 0.25 mg/mL; substrate diclofenac; 15 minutes
# T6 construct: human liver microsomes (0.25 mg/mL); from tissue; host or cells: human liver microsomes
# T6 sequence (P11712 whole entry): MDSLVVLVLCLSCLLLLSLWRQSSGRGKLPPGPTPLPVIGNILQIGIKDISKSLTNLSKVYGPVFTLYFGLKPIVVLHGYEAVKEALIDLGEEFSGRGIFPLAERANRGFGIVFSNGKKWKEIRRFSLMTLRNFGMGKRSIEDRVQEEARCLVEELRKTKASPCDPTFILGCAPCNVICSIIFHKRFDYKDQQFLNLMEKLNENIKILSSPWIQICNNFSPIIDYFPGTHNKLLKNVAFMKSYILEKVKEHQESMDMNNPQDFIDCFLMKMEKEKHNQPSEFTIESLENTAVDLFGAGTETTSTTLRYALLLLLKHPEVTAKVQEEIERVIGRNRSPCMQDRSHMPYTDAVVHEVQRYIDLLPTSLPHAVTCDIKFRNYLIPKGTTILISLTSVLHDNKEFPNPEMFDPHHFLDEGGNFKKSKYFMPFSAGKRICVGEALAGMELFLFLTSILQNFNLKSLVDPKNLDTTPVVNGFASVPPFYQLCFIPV
# Description: as §3, §4, §5
# Tau-BiFC cells = assay: Cytotoxicity (cell survival rate) in tau-BiFC cells; settings: group treated with Forskolin alone = 100%
# Description: as §1, §2
# [1] = Pharmacokinetics in SD rat (plasma PK parameters); format: in vivo
# Description: Specifically, an SD rat of 7 to 8 weeks of age (Core Tech, Hana Trading Co., Ltd.) having a body weight of about 250 g to 300 g was purchased, and was managed in a simple breeding room for small animals set to a temperature of 22° C.±2° C., a relative humidity of 50%±5%, a lighting time of 12 hours (light up at 8:00 A.M., turn off at 8:00 P.M.), and an illuminance of 150 lux to 300 lux. During the entire test period, feed was freely provided, RO water was freely provided, and fasting was performed for 16 hours before the oral administration of a drug. After preparing a drug under the conditions shown in Table 5 below, the drug was intravenously injected (IV) or orally administered (PO). 500 µL of transfused blood was collected in a tube containing sodium heparin and centrifuged at 2° C. to 8° C. at 8,000 rpm for 6 minutes to obtain plasma from the blood. The obtained plasma was added to 180 μL of acetonitrile containing internal standard materials, vortexed, and then centrifuged at 15,000 rpm at 4° C. for 5 minutes to obtain a supernatant. The obtained supernatant was analyzed by LC-MS/MS.
# Specific PK parameters were acquired using the Phoenix WinNonlin version 6.4 program (Phersight, USA) and wore calculated with a non-compartmental analysis model.
# [2] = Liver microsomal stability (rat); format: in vitro ADME; settings: amount of substrate remaining; 1 μM, 0.25 mg/mL microsomes, 37° C., 30 minutes
# Description: (§6) The liver microsomal stability of the compounds prepared according to Examples 1 to 171 was confirmed. Specifically, four kinds of liver microsomes (human, dog, rat, and mouse, each 0.25 mg/mL), a 0.1 M phosphate buffer solution (pH 7.4), and the compounds with a concentration of 1 μM were added, respectively. Then the mixture was cultured in advance at 37° C. for 5 minutes, and then further cultured at 37° C. for 30 minutes together with the addition of an NADPH generation system solution. Thereafter, a reaction was terminated by adding an acetonitrile solution containing an internal standard material (chloropropamide), centrifugal separation (14,000 rpm, 4° C.) was performed for 5 minutes, and then a supernatant was injected into an LC-MS/MS system. The substrate drugs were analyzed to evaluate the metabolic stability for 8 kinds of compounds.
# (§7) The amount of substrate remaining through the reaction was analyzed using the Shimadzu Nexera XR system and TSQ vantage (Thermo). Kinetex XB-C18 (2.1 mm×100 mm, 2.6 μm, particle size; Phenomenex, USA) was used in an HPLC column, and (A) distilled water containing 0.1% formic acid and (B) acetonitrile containing 0.1% formic acid were used as mobile phases. Analyst software (version 1.6.3) and Xcalibur (version 1.6.1) were used for data analysis.
# [3] = Liver microsomal stability (mouse); format: in vitro ADME; settings: amount of substrate remaining; 1 μM, 0.25 mg/mL microsomes, 37° C., 30 minutes
# Description: as §6, §7
# [4] = Liver microsomal stability (dog); format: in vitro ADME; settings: amount of substrate remaining; 1 μM, 0.25 mg/mL microsomes, 37° C., 30 minutes
# Description: as §6, §7
# T1 sequence (P10636 2-441 isoform P10636-8 limits assumed): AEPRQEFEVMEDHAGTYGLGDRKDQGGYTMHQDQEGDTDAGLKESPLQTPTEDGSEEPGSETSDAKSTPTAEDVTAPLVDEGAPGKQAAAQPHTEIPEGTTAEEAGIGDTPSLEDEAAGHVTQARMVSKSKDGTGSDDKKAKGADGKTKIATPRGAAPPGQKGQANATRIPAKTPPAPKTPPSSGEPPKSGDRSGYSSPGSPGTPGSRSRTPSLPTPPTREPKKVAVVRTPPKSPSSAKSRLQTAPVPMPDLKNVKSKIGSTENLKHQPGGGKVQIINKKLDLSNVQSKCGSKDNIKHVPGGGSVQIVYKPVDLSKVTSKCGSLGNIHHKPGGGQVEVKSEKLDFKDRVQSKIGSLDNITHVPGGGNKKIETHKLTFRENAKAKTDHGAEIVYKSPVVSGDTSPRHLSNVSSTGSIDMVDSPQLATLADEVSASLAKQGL
smiles,measurement,setting,value
"Cc1cncc(C(=O)Nc2nc3ccc(NN=C(C#N)C#N)cc3s2)c1 [Compound 90, (2-(5-methylnicotinamido)benzo[d]thiazol-6-yl)carbonohydrazonoyl dicyanide]",IC50,tau protein,200 nM
same,"inhibition effects of CYP coenzyme activity, CYP3A4",CYP3A4,51.7
same,"inhibition effects of CYP coenzyme activity, CYP2C19",CYP2C19,92.9
same,"inhibition effects of CYP coenzyme activity, CYP2D6",CYP2D6,>100
same,"inhibition effects of CYP coenzyme activity, CYP1A2",CYP1A2,35.1
same,"inhibition effects of CYP coenzyme activity, CYP2C9",CYP2C9,47.4
same,Cell survival rate (% @ 10 μM),Tau-BiFC cells,156.6%
"Cn1cc2cc(-c3ccc(NN=C(C#N)C#N)cc3)ccc2n1 [Compound 56, (4-(2-methyl-2H-indazol-5-yl)phenyl)carbonohydrazonoyl dicyanide]",AUCall,"[1]; SD rat plasma, IV 2 mg/kg","17481.28 hr, ng/mL"
same,Cmax,"[1]; SD rat plasma, IV 2 mg/kg",9140 ng/mL
same,Tmax,"[1]; SD rat plasma, IV 2 mg/kg",0.12 h
same,clearance,"[1]; SD rat plasma, IV 2 mg/kg",1.85 mL/min/kg
same,half-life,"[1]; SD rat plasma, IV 2 mg/kg",1.57 h
same,AUCall,"[1]; SD rat plasma, PO 10 mg/kg","77995.11 hr, ng/mL"
same,Cmax,"[1]; SD rat plasma, PO 10 mg/kg",11400 ng/mL
same,Tmax,"[1]; SD rat plasma, PO 10 mg/kg",1.5 h
same,half-life,"[1]; SD rat plasma, PO 10 mg/kg",3.21 h
same,F,"[1]; SD rat, PO 10 mg/kg versus IV",89.2%
"N#CC(C#N)=NNc1ccc2ncccc2c1 [Compound 67, quinoline-6-ylcarbonohydrazonoyl dicyanide]",IC50,tau protein,60 nM
same,"inhibition effects of CYP coenzyme activity, CYP3A4",CYP3A4,94.6
same,"inhibition effects of CYP coenzyme activity, CYP2C19",CYP2C19,93.1
same,"inhibition effects of CYP coenzyme activity, CYP2D6",CYP2D6,>100
same,"inhibition effects of CYP coenzyme activity, CYP1A2",CYP1A2,61.8
same,"inhibition effects of CYP coenzyme activity, CYP2C9",CYP2C9,62.6
same,Cell survival rate (% @ 10 μM),Tau-BiFC cells,199.9%
"N#CC(C#N)=NNc1ccc2cn[nH]c2c1 [Compound 70, (1H-indazol-6-yl)carbonohydrazonoyl dicyanide]",IC50,tau protein,33 nM
same,"inhibition effects of CYP coenzyme activity, CYP3A4",CYP3A4,95.5
same,"inhibition effects of CYP coenzyme activity, CYP2C19",CYP2C19,>100
same,"inhibition effects of CYP coenzyme activity, CYP2D6",CYP2D6,>100
same,"inhibition effects of CYP coenzyme activity, CYP1A2",CYP1A2,50.3
same,"inhibition effects of CYP coenzyme activity, CYP2C9",CYP2C9,48.7
same,Cell survival rate (% @ 10 μM),Tau-BiFC cells,125.1%
same,"liver microsomal stability, Rat (%)",[2],98.3%
same,"liver microsomal stability, Mouse (%)",[3],55.8%
same,"liver microsomal stability, Dog (%)",[4],64.2%

# From patent US12590071B2, “Hydrazone derivative in which terminal amine group is substituted with aryl group or heteroaryl group, and use thereof” (KOREA INSTITUTE OF SCIENCE AND TECHNOLOGY, priority 2018, dated 2026)
